Data published in PMC8473062, “Stability and Safety of Inhibitor Cystine Knot Peptide, GTx1-15, from the Tarantula Spider Grammostola rosea” (Toxins, 2021).
Like-named read-outs stand apart in the source and are kept apart here.

Experiments:
[1] = test system: THP-1 cells; assay: Antigenicity assay (CD80, CD86, CD54 expression by real-time PCR); conditions: positive control 4 μg/mL, 24 h exposure, RT-PCR, one range for the three genes
Protocol: THP-1 cells were cultured as described above. For antigenicity assays, 2.4 × 10^6 THP-1 cells were inoculated into single wells of a 12-well plate with 1.2 mL RPMI-1640 medium. […] As a negative control, RPMI-1640 was added. After a 24-h incubation, THP-1 cells were collected via centrifugation at 1000× g for 5 min, and then total RNA was extracted from cells using an RNeasy Mini Kit (QIAGEN, Hilden, Germany) according to the manufacturer’s instructions. Total RNA was treated with DNase (QIAGEN) for 10 min to digest contaminating genomic DNA and purified by an RNeasy MinElute Cleanup Kit (QIAGEN). Complementary DNA was synthesized with PrimeScript Reverse Transcriptase (Takara Bio) with an oligo (dT)12-18 primer (Invitrogen, Waltham, USA), 10 mM each dNTP mixture (Promega, Madison, USA), and RNase Inhibitor (Takara Bio). Real-time PCR mixtures were prepared with SYBR Premix Ex Taq (Takara Bio) according to the manufacturer’s instructions. […] Primers for real-time PCR were designed using Roche ProbeFinder version 2.45 (http://qpcr.probefinder.com/roche3.html. This site is stopped at the end of 2020).

[2] = Protein thermal shift assay; type: physicochemical; conditions: Protein Thermal Shift kit, heated 25 to 99 °C at 1 °C/min
Protocol: The protein thermal shift assay was conducted with the StepOne Real-Time PCR System (Thermo Fisher Scientific) using the Protein Thermal Shift Assay Kit according to the manufacturer’s instructions with Protein Thermal Shift Software version 1. The protein melt reaction mix was added to the wells of a 48-well PCR plate. The plate was heated from 25 to 99 °C with a heating rate of 1 °C/min. The software allows the user to calculate a melting temperature (Tm) from their melt curve data using the Boltzmann equation (Tm B).

[3] = cited from earlier work; for degradation after thermal incubation: 24 h
Protocol: Cyclotides are cystine-knotted peptides in which the N- and C-termini are cyclized. Kalata B1 is a well-known cyclotide that consists of 29 amino acids and is not degraded after heating to temperatures approaching boiling. The insecticidal spider toxin ω-hexatoxin-Hv1a is an ICK peptide whose thermal stability has been investigated. After incubating it for 24 h at 50 °C, 75 °C or 95 °C, ω-hexatoxin-Hv1a is degraded about 20%, 30% and 90%, respectively. In contrast, GTx1-15 degraded only 30% after a 24-h incubation at 95 °C.

[4] = cited from earlier work
Protocol: We previously reported that ProTxII (an ICK peptide) remains in circulation for over 4 h. Similar to those results, GTx1-15 retains an effective concentration in circulation for over several hours.

With `O=[N+]([O-])c1ccc(Cl)c([N+](=O)[O-])c1` [DNCB, 2,4-Dinitrochlorobenzene] the “increase in expression of CD80, CD86 and CD54 genes” value [1] was 20–70 times.

With GsMTx4 the “Tm B (Boltzmann melting temperature)” value [2] was 95.26 ± 0.10 °C.

In the case of “Kalata B1: well-known cyclotide of 29 amino acids; cystine-knotted peptide with N- and C-termini cyclized (cyclo(GLPVCGETCVGGTCNTPGCTCSWPVCTRN); disulfide (positions not given here); also: cystine-knotted (disulfide places not given here); UniProt P56254 89-117, looked up)”, the degradation after heating ([3]; heating to temperatures approaching boiling) is given as “not degraded”.

For “ProTxI: ICK peptide compared in the protein thermal shift assay (ECRYWLGGCSAGQTCCKHLVCSRRHGWCVWDGTFS; UniProt P83480 1-35, looked up)”, the “Tm B (Boltzmann melting temperature)” value [2] was 93.23 ± 0.12 °C.

For “ProTxII: ICK peptide compared in the protein thermal shift assay”, the “time remaining in circulation” value [4] is listed as “over 4 h” and the “Tm B (Boltzmann melting temperature)” value [2] is listed as 93.95 ± 0.12 °C.

In the case of ω-hexatoxin-Hv1a, the “degradation after thermal incubation” value ([3]; 50 °C) is given as “about 20%”, the “degradation after thermal incubation” value ([3]; 75 °C) is given as about 30% and the “degradation after thermal incubation” value ([3]; 95 °C) is given as about 90%.
